Laboratory results: the kinase profiling compilation of Christmann-Franck et al. (2016)

Key:
Assay in all cases: KINOMEscan competition binding
Details in all cases: compound 10.0 µM
[1] = system: ABL1 (human), P00519 [M351T]
ABL2 (human) = ABL2 (human) (UniProt P42684)
AKT2 (human) = AKT2 (human) (UniProt P31751)
ALK (human) = ALK (human) (UniProt Q9UM73)
AURKC (human) = AURKC (human) (UniProt Q9UQB9)
CAMK2G (human) = CAMK2G (human) (UniProt Q13555)
CDK18 (human) = CDK18 (human) (UniProt Q07002)
Chain of CDK18 (human) (Q07002 whole entry, looked up): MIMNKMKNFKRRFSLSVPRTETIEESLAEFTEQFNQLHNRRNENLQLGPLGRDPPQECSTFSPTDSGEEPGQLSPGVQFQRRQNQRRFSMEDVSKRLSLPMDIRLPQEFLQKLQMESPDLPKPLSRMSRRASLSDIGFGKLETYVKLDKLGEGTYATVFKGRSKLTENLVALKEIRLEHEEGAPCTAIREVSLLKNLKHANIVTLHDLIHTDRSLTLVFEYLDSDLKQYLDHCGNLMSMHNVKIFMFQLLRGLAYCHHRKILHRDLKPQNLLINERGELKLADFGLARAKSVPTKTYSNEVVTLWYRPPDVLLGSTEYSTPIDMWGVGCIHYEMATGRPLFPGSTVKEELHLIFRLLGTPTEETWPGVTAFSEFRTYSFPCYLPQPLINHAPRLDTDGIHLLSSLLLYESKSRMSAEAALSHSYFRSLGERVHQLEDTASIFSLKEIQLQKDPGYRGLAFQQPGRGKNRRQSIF

CIT (human) = CIT (human) (UniProt O14578)
CLK1 (human) = CLK1 (human) (UniProt P49759)
CLK3 (human) = CLK3 (human) (UniProt P49761)
CSF1R (human) = CSF1R (human) (UniProt P07333)
DCLK2 (human) = DCLK2 (human) (UniProt Q8N568)
Chain of DCLK2 (human) (Q8N568 whole entry, looked up): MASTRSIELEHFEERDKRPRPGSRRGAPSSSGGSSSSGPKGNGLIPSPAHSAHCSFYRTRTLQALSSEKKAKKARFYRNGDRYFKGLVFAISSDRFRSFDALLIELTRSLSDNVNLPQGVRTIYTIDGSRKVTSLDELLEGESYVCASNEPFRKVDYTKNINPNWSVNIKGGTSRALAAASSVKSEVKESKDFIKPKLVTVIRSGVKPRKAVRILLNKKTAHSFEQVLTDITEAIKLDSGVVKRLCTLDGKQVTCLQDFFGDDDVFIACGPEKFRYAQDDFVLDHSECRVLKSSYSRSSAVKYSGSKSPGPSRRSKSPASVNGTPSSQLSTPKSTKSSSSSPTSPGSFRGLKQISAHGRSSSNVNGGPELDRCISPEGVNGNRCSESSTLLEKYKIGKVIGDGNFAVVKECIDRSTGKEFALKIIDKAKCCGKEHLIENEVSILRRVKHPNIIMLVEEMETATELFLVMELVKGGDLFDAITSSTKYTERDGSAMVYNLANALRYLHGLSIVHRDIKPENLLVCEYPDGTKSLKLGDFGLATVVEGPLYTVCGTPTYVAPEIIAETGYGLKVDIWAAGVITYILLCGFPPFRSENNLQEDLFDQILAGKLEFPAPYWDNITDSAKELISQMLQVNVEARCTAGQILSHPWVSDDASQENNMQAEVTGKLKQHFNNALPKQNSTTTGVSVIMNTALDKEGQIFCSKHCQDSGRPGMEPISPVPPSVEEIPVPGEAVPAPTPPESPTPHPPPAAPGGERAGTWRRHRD

EPHA8 (human) = EPHA8 (human) (UniProt P29322)
EPHB3 (human) = EPHB3 (human) (UniProt P54753)
[2] = system: FLT3 (human), P36888 [N841I]
FRK (human) = FRK (human) (UniProt P42685)
HIPK1 (human) = HIPK1 (human) (UniProt Q86Z02)
INSR (human) = INSR (human) (UniProt P06213)
[3] = target: JAK3 JH1 catalytic (human) (UniProt P52333)
MAP3K5 (human) = MAP3K5 (human) (UniProt Q99683)
MAPK4 (human) = MAPK4 (human) (UniProt P31152)
MARK2 (human) = MARK2 (human) (UniProt Q7KZI7)
Chain of MARK2 (human) (Q7KZI7 whole entry, looked up): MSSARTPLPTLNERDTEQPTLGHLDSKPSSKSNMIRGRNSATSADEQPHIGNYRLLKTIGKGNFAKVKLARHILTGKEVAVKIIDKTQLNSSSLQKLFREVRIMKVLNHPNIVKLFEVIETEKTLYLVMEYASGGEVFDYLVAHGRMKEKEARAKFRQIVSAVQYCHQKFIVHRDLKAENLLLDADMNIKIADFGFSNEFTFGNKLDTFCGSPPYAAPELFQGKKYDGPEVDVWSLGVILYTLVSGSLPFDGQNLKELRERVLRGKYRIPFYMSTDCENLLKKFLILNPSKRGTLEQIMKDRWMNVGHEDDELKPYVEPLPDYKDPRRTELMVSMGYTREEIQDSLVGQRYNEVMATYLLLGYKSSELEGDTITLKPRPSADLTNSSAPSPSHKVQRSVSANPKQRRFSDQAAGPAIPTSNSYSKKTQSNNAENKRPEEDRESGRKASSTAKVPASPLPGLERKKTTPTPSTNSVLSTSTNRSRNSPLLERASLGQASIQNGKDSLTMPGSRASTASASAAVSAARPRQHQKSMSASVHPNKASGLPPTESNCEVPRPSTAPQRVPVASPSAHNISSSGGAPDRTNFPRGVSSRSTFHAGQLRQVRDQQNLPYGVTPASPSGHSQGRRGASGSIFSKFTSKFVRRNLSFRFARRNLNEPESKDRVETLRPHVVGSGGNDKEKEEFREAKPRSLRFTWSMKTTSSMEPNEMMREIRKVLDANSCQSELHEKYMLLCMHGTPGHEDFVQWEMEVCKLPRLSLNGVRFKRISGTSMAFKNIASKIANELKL

MUSK (human) = MUSK (human) (UniProt O15146)
MYO3A (human) = MYO3A (human) (UniProt Q8NEV4)
NEK1 (human) = NEK1 (human) (UniProt Q96PY6)
Chain of NEK1 (human) (Q96PY6 whole entry, looked up): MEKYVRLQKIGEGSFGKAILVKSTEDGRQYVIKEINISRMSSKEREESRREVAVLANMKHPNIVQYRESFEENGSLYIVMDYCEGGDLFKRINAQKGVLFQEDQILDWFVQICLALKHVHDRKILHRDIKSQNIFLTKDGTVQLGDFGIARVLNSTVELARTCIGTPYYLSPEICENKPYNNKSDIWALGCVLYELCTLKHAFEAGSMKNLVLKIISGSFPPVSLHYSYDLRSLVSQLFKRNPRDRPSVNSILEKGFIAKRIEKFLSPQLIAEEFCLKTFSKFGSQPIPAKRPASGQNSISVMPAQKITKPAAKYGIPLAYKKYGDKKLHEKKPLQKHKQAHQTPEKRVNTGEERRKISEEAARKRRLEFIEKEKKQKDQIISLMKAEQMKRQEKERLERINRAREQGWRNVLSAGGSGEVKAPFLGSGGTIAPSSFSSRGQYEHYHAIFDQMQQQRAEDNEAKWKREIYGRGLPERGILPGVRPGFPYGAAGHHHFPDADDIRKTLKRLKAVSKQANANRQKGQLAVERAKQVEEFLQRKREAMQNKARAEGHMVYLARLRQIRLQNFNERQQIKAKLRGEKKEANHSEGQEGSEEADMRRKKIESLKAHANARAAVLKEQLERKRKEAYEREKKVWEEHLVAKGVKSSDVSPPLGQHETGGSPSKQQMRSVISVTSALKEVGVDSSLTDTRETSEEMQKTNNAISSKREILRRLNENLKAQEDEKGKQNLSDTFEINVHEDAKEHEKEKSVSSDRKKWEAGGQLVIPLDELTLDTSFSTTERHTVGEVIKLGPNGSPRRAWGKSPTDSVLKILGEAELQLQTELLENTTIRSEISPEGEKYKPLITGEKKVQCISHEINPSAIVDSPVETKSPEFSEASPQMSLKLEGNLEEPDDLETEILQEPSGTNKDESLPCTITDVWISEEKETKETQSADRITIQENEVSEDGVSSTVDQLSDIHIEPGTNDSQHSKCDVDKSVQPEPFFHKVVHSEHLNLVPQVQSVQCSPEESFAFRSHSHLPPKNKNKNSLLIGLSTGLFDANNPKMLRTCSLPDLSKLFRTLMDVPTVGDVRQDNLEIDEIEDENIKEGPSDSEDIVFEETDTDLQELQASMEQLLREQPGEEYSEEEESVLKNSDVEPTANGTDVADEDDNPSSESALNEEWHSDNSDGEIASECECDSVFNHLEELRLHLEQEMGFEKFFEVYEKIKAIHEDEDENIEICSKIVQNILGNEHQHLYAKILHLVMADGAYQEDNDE

NTRK1 (human) = NTRK1 (human) (UniProt P04629)
PRKCQ (human) = PRKCQ (human) (UniProt Q04759)
RAF1 (human) = RAF1 (human) (UniProt P04049)
RIOK3 (human) = RIOK3 (human) (UniProt O14730)
RIPK1 (human) = RIPK1 (human) (UniProt Q13546)
RIPK4 (human) = RIPK4 (human) (UniProt P57078)
Chain of RIPK4 (human) (P57078 whole entry, looked up): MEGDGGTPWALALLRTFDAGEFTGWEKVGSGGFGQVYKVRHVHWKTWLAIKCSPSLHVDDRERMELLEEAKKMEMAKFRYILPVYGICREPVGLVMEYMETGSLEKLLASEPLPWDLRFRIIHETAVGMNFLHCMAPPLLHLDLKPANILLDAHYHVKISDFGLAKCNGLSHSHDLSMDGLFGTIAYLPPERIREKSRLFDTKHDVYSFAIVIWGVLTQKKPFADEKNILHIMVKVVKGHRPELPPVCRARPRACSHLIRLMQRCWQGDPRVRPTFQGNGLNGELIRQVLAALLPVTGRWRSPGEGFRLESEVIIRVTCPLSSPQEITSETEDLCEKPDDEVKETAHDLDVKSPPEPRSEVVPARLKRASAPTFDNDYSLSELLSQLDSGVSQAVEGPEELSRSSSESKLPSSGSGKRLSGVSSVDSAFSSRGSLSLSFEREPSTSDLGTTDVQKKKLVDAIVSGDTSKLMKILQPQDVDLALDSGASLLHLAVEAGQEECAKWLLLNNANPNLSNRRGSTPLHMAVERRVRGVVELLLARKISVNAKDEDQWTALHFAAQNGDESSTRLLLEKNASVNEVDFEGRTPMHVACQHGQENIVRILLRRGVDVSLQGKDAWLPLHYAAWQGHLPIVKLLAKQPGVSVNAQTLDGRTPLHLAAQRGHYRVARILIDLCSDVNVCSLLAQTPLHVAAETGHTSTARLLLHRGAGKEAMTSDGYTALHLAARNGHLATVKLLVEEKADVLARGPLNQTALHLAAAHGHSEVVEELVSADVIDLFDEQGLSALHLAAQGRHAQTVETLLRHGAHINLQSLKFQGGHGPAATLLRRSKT

RPS6KA6 KD2 (human) = RPS6KA6 KD2 (human) (UniProt Q9UK32)
SIK2 (human) = SIK2 (human) (UniProt Q9H0K1)
Chain of SIK2 (human) (Q9H0K1 whole entry, looked up): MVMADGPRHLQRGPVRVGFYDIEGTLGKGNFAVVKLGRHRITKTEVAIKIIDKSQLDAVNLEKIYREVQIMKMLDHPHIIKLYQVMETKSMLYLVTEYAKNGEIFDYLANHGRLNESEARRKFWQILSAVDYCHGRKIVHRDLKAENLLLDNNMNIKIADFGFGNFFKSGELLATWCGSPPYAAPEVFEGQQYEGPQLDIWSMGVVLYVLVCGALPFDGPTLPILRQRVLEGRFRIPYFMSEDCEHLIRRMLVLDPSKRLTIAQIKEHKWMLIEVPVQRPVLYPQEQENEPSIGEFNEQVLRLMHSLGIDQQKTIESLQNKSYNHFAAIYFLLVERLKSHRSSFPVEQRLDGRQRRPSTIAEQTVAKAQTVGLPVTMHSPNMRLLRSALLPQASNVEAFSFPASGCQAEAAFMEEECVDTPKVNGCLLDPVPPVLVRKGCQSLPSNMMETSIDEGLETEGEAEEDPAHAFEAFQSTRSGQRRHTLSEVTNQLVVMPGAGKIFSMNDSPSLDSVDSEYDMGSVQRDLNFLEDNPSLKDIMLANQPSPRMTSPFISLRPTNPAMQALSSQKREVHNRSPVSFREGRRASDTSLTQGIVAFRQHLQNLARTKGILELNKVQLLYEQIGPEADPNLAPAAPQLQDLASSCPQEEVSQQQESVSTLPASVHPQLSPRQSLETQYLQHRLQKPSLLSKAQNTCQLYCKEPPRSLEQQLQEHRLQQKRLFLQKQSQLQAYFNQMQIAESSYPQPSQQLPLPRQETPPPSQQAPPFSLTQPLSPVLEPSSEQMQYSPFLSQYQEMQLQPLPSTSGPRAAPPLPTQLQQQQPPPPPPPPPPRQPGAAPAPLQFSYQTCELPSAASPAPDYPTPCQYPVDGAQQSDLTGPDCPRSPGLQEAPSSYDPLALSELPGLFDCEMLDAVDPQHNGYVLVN

SLK (human) = SLK (human) (UniProt Q9H2G2)
STK10 (human) = STK10 (human) (UniProt O94804)
STK35 (human) = STK35 (human) (UniProt Q8TDR2)
STK38L (human) = STK38L (human) (UniProt Q9Y2H1)
TLK1 (human) = TLK1 (human) (UniProt Q9UKI8)
TYRO3 (human) = TYRO3 (human) (UniProt Q06418)
WEE1 (human) = WEE1 (human) (UniProt P30291)

SMILES | kinase still bound, per cent of control [1] [%] | kinase still bound, per cent of control (ABL2 (human)) [%] | kinase still bound, per cent of control (AKT2 (human)) [%] | kinase still bound, per cent of control (ALK (human)) [%] | kinase still bound, per cent of control (AURKC (human)) [%] | kinase still bound, per cent of control (CAMK2G (human)) [%] | kinase still bound, per cent of control (CDK18 (human)) [%] | kinase still bound, per cent of control (CIT (human)) [%] | kinase still bound, per cent of control (CLK1 (human)) [%] | kinase still bound, per cent of control (CLK3 (human)) [%] | kinase still bound, per cent of control (CSF1R (human)) [%] | kinase still bound, per cent of control (DCLK2 (human)) [%] | kinase still bound, per cent of control (EPHA8 (human)) [%] | kinase still bound, per cent of control (EPHB3 (human)) [%] | kinase still bound, per cent of control [2] [%] | kinase still bound, per cent of control (FRK (human)) [%] | kinase still bound, per cent of control (HIPK1 (human)) [%] | kinase still bound, per cent of control (INSR (human)) [%] | kinase still bound, per cent of control [3] [%] | kinase still bound, per cent of control (MAP3K5 (human)) [%] | also measured
COc1cc(N2CCN(C)CC2)ccc1Nc1nc(N)c(C(=O)c2c(Cl)cccc2Cl)s1 | 84 | 82 | 100 | 0.35 | 100 | 17 | 78 | 94 | 22 | 2 | 67 | 4.1 | 73 | 0 | 47 | 43 | 69 | 94 | 100 | 100 | kinase still bound, per cent of control (MAPK4 (human)): 90%; kinase still bound, per cent of control (MARK2 (human)): 90%; kinase still bound, per cent of control (MUSK (human)): 90%; kinase still bound, per cent of control (MYO3A (human)): 85%; kinase still bound, per cent of control (NEK1 (human)): 75%; kinase still bound, per cent of control (NTRK1 (human)): 62%; kinase still bound, per cent of control (PRKCQ (human)): 54%; kinase still bound, per cent of control (RAF1 (human)): 100%; kinase still bound, per cent of control (RIOK3 (human)): 100%; kinase still bound, per cent of control (RIPK1 (human)): 100%; kinase still bound, per cent of control (RIPK4 (human)): 96%; kinase still bound, per cent of control (RPS6KA6 KD2 (human)): 28%; kinase still bound, per cent of control (SIK2 (human)): 100%; kinase still bound, per cent of control (SLK (human)): 1.6%; kinase still bound, per cent of control (STK10 (human)): 40%; kinase still bound, per cent of control (STK35 (human)): 100%; kinase still bound, per cent of control (STK38L (human)): 84%; kinase still bound, per cent of control (TLK1 (human)): 86%; kinase still bound, per cent of control (TYRO3 (human)): 100%; kinase still bound, per cent of control (WEE1 (human)): 100%
COc1cc(C(=O)NC2CCN(C)CC2)ccc1Nc1ncc2c(n1)N(C1CCCC1)C(C)CC(=O)N2C (stereo not given) | 100 | 100 | 100 | 6.2 | 100 | 34 | 100 | 100 | 18 | 100 | 100 | 19 | 100 | 100 | 100 | 100 | 100 | 100 | 100 | 100 | kinase still bound, per cent of control (MAPK4 (human)): 100%; kinase still bound, per cent of control (MARK2 (human)): 100%; kinase still bound, per cent of control (MUSK (human)): 100%; kinase still bound, per cent of control (MYO3A (human)): 100%; kinase still bound, per cent of control (NEK1 (human)): 100%; kinase still bound, per cent of control (NTRK1 (human)): 100%; kinase still bound, per cent of control (PRKCQ (human)): 100%; kinase still bound, per cent of control (RAF1 (human)): 100%; kinase still bound, per cent of control (RIOK3 (human)): 100%; kinase still bound, per cent of control (RIPK1 (human)): 100%; kinase still bound, per cent of control (RIPK4 (human)): 100%; kinase still bound, per cent of control (RPS6KA6 KD2 (human)): 12%; kinase still bound, per cent of control (SIK2 (human)): 100%; kinase still bound, per cent of control (SLK (human)): 1.4%; kinase still bound, per cent of control (STK10 (human)): 29%; kinase still bound, per cent of control (STK35 (human)): 100%; kinase still bound, per cent of control (STK38L (human)): 100%; kinase still bound, per cent of control (TLK1 (human)): 100%; kinase still bound, per cent of control (TYRO3 (human)): 100%; kinase still bound, per cent of control (WEE1 (human)): 100%
C[C@@H](Oc1cc(-n2cnc3ccc(CN4CCN(C)CC4)cc32)sc1C(N)=O)c1ccccc1C(F)(F)F | 93 | 90 | 100 | 100 | 100 | 15 | 100 | 87 | 36 | 91 | 77 | 100 | 90 | 100 | 1.2 | 100 | 40 | 100 | 10 | 100 | kinase still bound, per cent of control (MAPK4 (human)): 100%; kinase still bound, per cent of control (MARK2 (human)): 53%; kinase still bound, per cent of control (MUSK (human)): 100%; kinase still bound, per cent of control (MYO3A (human)): 78%; kinase still bound, per cent of control (NEK1 (human)): 41%; kinase still bound, per cent of control (NTRK1 (human)): 74%; kinase still bound, per cent of control (PRKCQ (human)): 47%; kinase still bound, per cent of control (RAF1 (human)): 100%; kinase still bound, per cent of control (RIOK3 (human)): 6.6%; kinase still bound, per cent of control (RIPK1 (human)): 100%; kinase still bound, per cent of control (RIPK4 (human)): 52%; kinase still bound, per cent of control (RPS6KA6 KD2 (human)): 73%; kinase still bound, per cent of control (SIK2 (human)): 61%; kinase still bound, per cent of control (SLK (human)): 0.25%; kinase still bound, per cent of control (STK10 (human)): 0%; kinase still bound, per cent of control (STK35 (human)): 76%; kinase still bound, per cent of control (STK38L (human)): 100%; kinase still bound, per cent of control (TLK1 (human)): 71%; kinase still bound, per cent of control (TYRO3 (human)): 100%; kinase still bound, per cent of control (WEE1 (human)): 100%
